Reference: patent publication EP0018134B1, “Dihydropyridine derivatives, processes for their preparation and pharmaceutical compositions containing them” (BEECHAM GROUP PLC, priority 1979, dated 1980)

system: Fasted Mice; assay: Activity on Glucose Tolerance in Fasted Mice; format: in vivo; details: mice fasted 24 hours, 8 per group; dose 0.2 mmol/kg body weight orally in 1% aqueous carboxymethyl cellulose; glucose 1 g/kg sub-cutaneous 30 minutes later; vehicle control (dose 0) value in the row above; asterisks = significance vs controls
Protocol: For this assay mice were fasted for 24 hours before the experiment and then randomised so that each treatment group contained 8 mice. The compounds were dosed orally in 1% aqueous carboxymethyl cellulose (10 ml/kg body weight), and 30 minutes later glucose (1 g/kg) was administered by the sub-cutaneous route. Blood samples for glucose analysis were taken from the tail 60 minutes after glucose administration; the results are shown in the table below.
A standard system for indicating the significance of results with respect to the controls (dose = zero mmol/kg) which received the 1% aqueous carboxymethyl cellulose vehicle only, is as follows: • ** P < 0.05 • *** P < 0.01 • **** P < 0.001
In the following Table, column A represents the dose of compound (mmol/kg body weight) and column B represents the blood glucose concentration (mmol/litre) 60 minutes after sub-cutaneous glucose load.

Row | Structure (SMILES) | blood glucose concentration (mmol/litre) 60 minutes after sub-cutaneous glucose load
1 | CC1CN(C(=Nc2ccccc2)N=c2ccccn2C)CC(C)O1 (stereo not shown) [Example 3, N-(1,2-dihydro-1-methyl-2-pyridylidene)-N'-phenyl-4-(2,6-dimethylmorpholine)-carboxamidine] | 3.48 mmol/L
2 | Cn1ccccc1=NC(=Nc1ccccc1)NCc1ccccc1 [Example 4, N-benzyl-N'-(1,2-dihydro-1-methyl-2-pyridylidene)-N"-phenylguanidine] | 5.36 ** mmol/litre
3 | CCN(CC)C(=Nc1ccccc1)N=c1c(C)cccn1C.I [Example 10, N,N-diethyl-N'-(1,2-dihydro-1,3-dimethyl-2-pyridylidene)-N"-phenylguanidine hydroiodide] | 5.54 *** mmol/litre
4 | Cc1ccn(C)c(=NC(=Nc2ccccc2)N2CCOCC2)c1.I [Example 11, N-(1,2-dihydro-1,4-dimethyl-2-pyridylidene)-N'-phenyl-4-morpholinecarboxamidine hydroiodide] | 4.47 ** mmol/litre
5 | Cn1cc(Br)ccc1=NC(=Nc1ccccc1)N1CCOCC1.I [Example 12, N-(5-bromo-1,2-dihydro-1-methyl-2-pyridylidene)-N'-phenyl-4-morpholinecarboxamidine hydroiodide] | 3.52 *** mmol/litre
6 | COC(=O)c1ccc(=NC(=Nc2ccccc2)N2CCOCC2)n(C)c1.I [Example 13, N-(5-carbomethoxy-1,2-dihydro-1-methyl-2-pyridylidene)-N'-phenyl-4-morpholinecarboxamidine hydroiodide] | 3.36 ** mmol/litre
7 | Cc1ccc(=NC(=Nc2ccccc2)N2CCOCC2)n(C)c1 [Example 14, N-(1,2-Dihydro-1,5-dimethyl-2-pyridylidene)-N'-phenyl-4-morpholinecarboxamidine] | 2.53 **** mmol/litre
